Assay results: US20240383875A1, “Benzimidazole Pyridine Derivatives” (Hoffmann-La Roche Inc., priority 2022, published 2024)

Assays:
Assay type in all cases: biochemical
SIK1 = SIK1 (Homo sapiens, UniProt P57059); assay: Enzymatic activity assay SIK1, RapidFire mass spectrometry (phosphorylation of CHK-peptide); conditions: RapidFire MS, inhibition of SIK1; read-out: SIK1 RF IC50
How it was run: (§1)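 Compounds (12-point, 3-fold, generally 30 μM to 170 pM) were pre-incubated 30 min at ambient temperature with SIK1 (5 nM), SIK2 (0.5 nM) or SIK3 (1.5 nM) in HEPES pH 7.0/magnesium acetate buffer. CHK-peptide (10 μM solution) and ATP (100 μM solution) were then added for 45 min before formic acid quench.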

SIK2 = SIK2 (Homo sapiens, UniProt Q9H0K1); assay: Enzymatic activity assay SIK2, RapidFire mass spectrometry (phosphorylation of CHK-peptide); conditions: RapidFire MS, inhibition of SIK2; read-out: SIK2 RF IC50
How it was run: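 SIK2 (0.5 nM) in pH 7.0 HEPES buffer with 10 mM Mg acetate phosphorylates CHK-peptide (10 μM solution) with 100 μM ATP solution, 45 min ambient, then formic acid quench.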

SIK3 = SIK3 (Homo sapiens, UniProt Q9Y2K2); assay: Enzymatic activity assay SIK3, RapidFire mass spectrometry (phosphorylation of CHK-peptide); conditions: RapidFire MS, inhibition of SIK3; read-out: SIK3 RF IC50
How it was run: as §1

Sequence of SIK1 (P57059 whole entry): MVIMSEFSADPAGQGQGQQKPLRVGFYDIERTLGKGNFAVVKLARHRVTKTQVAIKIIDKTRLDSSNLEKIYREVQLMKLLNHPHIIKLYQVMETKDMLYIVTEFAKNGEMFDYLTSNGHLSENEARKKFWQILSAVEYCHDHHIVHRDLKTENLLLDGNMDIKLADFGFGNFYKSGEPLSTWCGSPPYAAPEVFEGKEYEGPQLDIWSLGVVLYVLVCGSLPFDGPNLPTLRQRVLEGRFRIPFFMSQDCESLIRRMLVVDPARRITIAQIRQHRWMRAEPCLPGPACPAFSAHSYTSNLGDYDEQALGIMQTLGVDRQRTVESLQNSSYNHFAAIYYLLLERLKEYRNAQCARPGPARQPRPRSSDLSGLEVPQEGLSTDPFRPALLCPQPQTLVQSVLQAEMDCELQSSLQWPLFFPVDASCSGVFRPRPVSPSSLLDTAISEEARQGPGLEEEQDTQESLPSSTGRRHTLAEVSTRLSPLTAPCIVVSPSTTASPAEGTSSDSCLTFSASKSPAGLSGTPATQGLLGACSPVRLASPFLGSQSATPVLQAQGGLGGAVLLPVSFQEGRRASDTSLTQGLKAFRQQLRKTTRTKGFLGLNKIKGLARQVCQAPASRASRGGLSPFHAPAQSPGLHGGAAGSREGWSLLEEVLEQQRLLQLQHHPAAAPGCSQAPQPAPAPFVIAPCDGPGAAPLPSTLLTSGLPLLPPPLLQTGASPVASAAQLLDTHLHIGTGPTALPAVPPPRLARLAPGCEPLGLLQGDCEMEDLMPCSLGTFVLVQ
Sequence of SIK2 (Q9H0K1 whole entry): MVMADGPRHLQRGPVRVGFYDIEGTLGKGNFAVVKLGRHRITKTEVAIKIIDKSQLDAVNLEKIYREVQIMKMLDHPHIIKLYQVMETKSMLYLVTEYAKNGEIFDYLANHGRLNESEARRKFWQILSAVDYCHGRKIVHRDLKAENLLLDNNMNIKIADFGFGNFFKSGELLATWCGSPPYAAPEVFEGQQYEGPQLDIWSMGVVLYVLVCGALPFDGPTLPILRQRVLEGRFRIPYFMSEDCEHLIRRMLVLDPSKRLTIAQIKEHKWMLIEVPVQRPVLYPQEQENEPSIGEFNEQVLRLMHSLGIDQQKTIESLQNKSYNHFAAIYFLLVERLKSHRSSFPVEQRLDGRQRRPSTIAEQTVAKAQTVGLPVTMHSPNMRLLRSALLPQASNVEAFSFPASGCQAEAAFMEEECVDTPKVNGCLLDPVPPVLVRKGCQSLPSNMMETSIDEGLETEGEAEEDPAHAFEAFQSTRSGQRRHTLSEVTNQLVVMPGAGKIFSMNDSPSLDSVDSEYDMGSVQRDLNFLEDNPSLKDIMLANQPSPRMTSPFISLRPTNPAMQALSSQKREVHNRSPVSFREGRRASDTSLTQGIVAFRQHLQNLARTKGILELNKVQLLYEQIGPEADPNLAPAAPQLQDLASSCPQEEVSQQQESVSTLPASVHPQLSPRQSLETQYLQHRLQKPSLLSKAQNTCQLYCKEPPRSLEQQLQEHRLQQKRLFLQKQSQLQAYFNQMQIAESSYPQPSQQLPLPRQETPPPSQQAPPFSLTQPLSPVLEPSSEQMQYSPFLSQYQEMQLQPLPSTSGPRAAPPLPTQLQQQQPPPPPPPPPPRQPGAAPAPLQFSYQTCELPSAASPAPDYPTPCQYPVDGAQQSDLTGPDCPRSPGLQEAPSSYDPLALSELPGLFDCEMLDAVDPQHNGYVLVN
Sequence of SIK3 (Q9Y2K2 whole entry): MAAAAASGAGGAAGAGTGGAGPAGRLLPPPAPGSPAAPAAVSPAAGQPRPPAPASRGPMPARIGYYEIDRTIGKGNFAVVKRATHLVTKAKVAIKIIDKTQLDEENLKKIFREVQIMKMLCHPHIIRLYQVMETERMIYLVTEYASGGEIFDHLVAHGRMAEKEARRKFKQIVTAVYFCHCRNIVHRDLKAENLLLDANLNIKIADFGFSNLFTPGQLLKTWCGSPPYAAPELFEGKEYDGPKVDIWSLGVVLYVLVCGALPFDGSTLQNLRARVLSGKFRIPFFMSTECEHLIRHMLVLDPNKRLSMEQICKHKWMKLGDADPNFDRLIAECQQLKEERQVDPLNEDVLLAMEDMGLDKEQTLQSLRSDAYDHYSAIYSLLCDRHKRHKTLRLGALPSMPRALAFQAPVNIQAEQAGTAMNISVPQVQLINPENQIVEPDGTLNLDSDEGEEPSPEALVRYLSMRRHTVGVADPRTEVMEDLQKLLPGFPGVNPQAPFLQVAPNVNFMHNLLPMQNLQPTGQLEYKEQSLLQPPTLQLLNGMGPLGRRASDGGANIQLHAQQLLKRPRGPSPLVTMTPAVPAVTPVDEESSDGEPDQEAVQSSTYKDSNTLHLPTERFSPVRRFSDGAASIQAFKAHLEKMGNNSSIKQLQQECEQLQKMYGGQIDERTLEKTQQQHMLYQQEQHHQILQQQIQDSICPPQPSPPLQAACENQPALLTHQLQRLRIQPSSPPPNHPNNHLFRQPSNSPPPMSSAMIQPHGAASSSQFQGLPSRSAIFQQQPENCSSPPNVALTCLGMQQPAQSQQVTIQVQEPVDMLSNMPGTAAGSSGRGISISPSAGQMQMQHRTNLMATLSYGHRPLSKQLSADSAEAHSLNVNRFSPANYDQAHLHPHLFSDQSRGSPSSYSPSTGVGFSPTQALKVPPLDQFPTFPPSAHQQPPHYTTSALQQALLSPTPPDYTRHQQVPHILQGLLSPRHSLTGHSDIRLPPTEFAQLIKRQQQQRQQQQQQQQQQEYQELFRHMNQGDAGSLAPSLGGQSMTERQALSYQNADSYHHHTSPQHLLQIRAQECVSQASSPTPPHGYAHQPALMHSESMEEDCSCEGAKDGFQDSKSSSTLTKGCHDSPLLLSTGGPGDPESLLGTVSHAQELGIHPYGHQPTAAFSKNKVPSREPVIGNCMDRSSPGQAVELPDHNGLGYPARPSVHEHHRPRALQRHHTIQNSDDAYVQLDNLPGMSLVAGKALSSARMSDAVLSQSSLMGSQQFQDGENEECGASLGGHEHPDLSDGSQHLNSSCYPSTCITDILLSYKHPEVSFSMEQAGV

CCC(O)c1ccc(-n2cnc3cc(OC)c(OC)cc32)nc1-c1ccc(F)cc1OC (stereo not drawn) [Example 18, 1-(6-(5,6-Dimethoxy-1H-benzo[d]imidazol-1-yl)-2-(4-fluoro-2-methoxyphenyl)pyridin-3-yl)propan-1-ol]
IC50 (SIK1): 1000 nM
IC50 (SIK2): 988 nM
IC50 (SIK3): 2880 nM

COC1CN(C(=O)c2ccc(Nc3ccc4c(c3)ncn4-c3ccc(C(C)O)c(-n4nc(C#N)cc4C)n3)nn2)C1 (stereo not drawn) [Example 191, 1-[3-(1-Hydroxyethyl)-6-[5-[[6-(3-methoxyazetidine-1-carbonyl)pyridazin-3-yl]amino]benzimidazol-1-yl]-2-pyridyl]-5-methyl-pyrazole-3-carbonitrile]
IC50 (SIK1): 53 nM
IC50 (SIK2): 2.7 nM
IC50 (SIK3): 2.2 nM

COc1cc2c(cc1Nc1ccc(C)nn1)ncn2-c1ccc(C(C)O)c(-n2nc(C#N)cc2C)n1 (stereo not drawn) [Example 185, 1-[3-(1-Hydroxyethyl)-6-[6-methoxy-5-[(6-methylpyridazin-3-yl)amino]benzimidazol-1-yl]-2-pyridyl]-5-methyl-pyrazole-3-carbonitrile]
IC50 (SIK1): 6 nM
IC50 (SIK2): 0.3 nM
IC50 (SIK3): 0.7 nM

Cc1cc(C(=O)N(C)C)c(Nc2ccc3c(c2)ncn3-c2ccc(CO)c(-n3nc(C(F)F)cc3C(F)F)n2)nn1 [Example 348, 3-[[1-[6-[3,5-bis(difluoromethyl)pyrazol-1-yl]-5-(hydroxymethyl)-2-pyridyl]benzimidazol-5-yl]amino]-N,N,6-trimethyl-pyridazine-4-carboxamide]
IC50 (SIK1): 14500 nM
IC50 (SIK2): 32.2 nM
IC50 (SIK3): 37.1 nM

Cc1ccc(Nc2ccc3ncn(-c4ccc(C(C)O)c(N5CC[C@@H]6NCC[C@H]65)n4)c3c2)nn1 (stereo partly drawn) [Example 125, 1-[6-[6-[(6-Methylpyridazin-3-yl)amino]benzimidazol-1-yl]-2-[(3aR,6aS)-2,3,3a,5,6,6a-hexahydro-1H-pyrrolo[3,2-b]pyrrol-4-yl]-3-pyridyl]ethanol; formic acid]
IC50 (SIK1): 981 nM
IC50 (SIK2): 863 nM
IC50 (SIK3): 895 nM

Cc1cc(C#N)nn1-c1nc(-n2cnc3cc(-c4ccc5c(n4)C(=O)N(C)C5)ccc32)ccc1C(C)O (stereo not drawn) [Example 366, 1-[3-(1-hydroxyethyl)-6-[5-(6-methyl-7-oxo-5H-pyrrolo[3,4-b]pyridin-2-yl)benzimidazol-1-yl]-2-pyridyl]-5-methyl-pyrazole-3-carbonitrile]
IC50 (SIK1): 133 nM
IC50 (SIK2): 58.2 nM
IC50 (SIK3): 23.3 nM

COc1cc(Cl)nnc1Nc1ccc2c(c1)ncn2-c1ccc(C(C)O)c(-n2nc(C#N)cc2C)n1 (stereo not drawn) [Example 241, 1-[6-[5-[(6-Chloro-4-methoxy-pyridazin-3-yl)amino]benzimidazol-1-yl]-3-(1-hydroxyethyl)-2-pyridyl]-5-methyl-pyrazole-3-carbonitrile]
IC50 (SIK1): 173 nM
IC50 (SIK2): 1.8 nM
IC50 (SIK3): 0.9 nM

Cc1cc(C(F)F)nn1-c1nc(-n2cnc3cc(F)c(Nc4ccc(F)c(F)c4F)cc32)ccc1C(C)O (stereo not drawn) [Example 364, 1-[2-[3-(difluoromethyl)-5-methyl-pyrazol-1-yl]-6-[5-fluoro-6-(2,3,4-trifluoroanilino)benzimidazol-1-yl]-3-pyridyl]ethanol]
IC50 (SIK1): 8 nM
IC50 (SIK2): 2.9 nM
IC50 (SIK3): 11.7 nM

Cc1ccc(Nc2ccc3ncn(-c4ccc(C(C)O)c(-n5cc(C)c(C#N)n5)n4)c3c2)nn1 (stereo not drawn) [Example 169, 1-[3-(1-Hydroxyethyl)-6-[6-[(6-methylpyridazin-3-yl)amino]benzimidazol-1-yl]-2-pyridyl]-4-methyl-pyrazole-3-carbonitrile; formic acid]
IC50 (SIK1): 613 nM
IC50 (SIK2): 135 nM
IC50 (SIK3): 85.2 nM

Cc1cc(C#N)nn1-c1nc(-n2cnc3cc(Nc4cc5c(nn4)CCC5)c(F)cc32)ccc1C(C)O (stereo not drawn) [Example 382, 1-[6-[5-(6,7-dihydro-5~{H}-cyclopenta[c]pyridazin-3-ylamino)-6-fluoro-benzimidazol-1-yl]-3-(1-hydroxyethyl)-2-pyridyl]-5-methyl-pyrazole-3-carbonitrile]
IC50 (SIK1): 207 nM
IC50 (SIK2): 0.5 nM
IC50 (SIK3): 0.6 nM

COc1ccc(Nc2ccc3c(c2)ncn3-c2ccc(C(C)O)c(-n3nc(C#N)cc3C)n2)nn1 (stereo not drawn) [Example 88, 1-[3-(1-Hydroxyethyl)-6-[5-[(6-methoxypyridazin-3-yl)amino]benzimidazol-1-yl]-2-pyridyl]-5-methyl-pyrazole-3-carbonitrile]
IC50 (SIK1): 62 nM
IC50 (SIK2): 2.2 nM
IC50 (SIK3): 0.8 nM

Cc1nn(CC(F)(F)F)cc1-c1nc(-n2cnc3cc(Oc4ccc(CN5CCOCC5)nn4)ccc32)ccc1C(C)O (stereo not drawn) [Example 350, 1-[2-[3-methyl-1-(2,2,2-trifluoroethyl)pyrazol-4-yl]-6-[5-[6-(morpholinomethyl)pyridazin-3-yl]oxybenzimidazol-1-yl]-3-pyridyl]ethanol]
IC50 (SIK1): 3800 nM
IC50 (SIK2): 67 nM
IC50 (SIK3): 60.6 nM

Cc1ccc(Oc2ccc3c(c2)ncn3-c2ccc(C(C)O)c(-n3nc(C#N)cc3C)n2)nn1 (stereo not drawn) [Example 75, 1-[3-(1-Hydroxyethyl)-6-[5-(6-methylpyridazin-3-yl)oxybenzimidazol-1-yl]-2-pyridyl]-5-methyl-pyrazole-3-carbonitrile]
IC50 (SIK1): 1440 nM
IC50 (SIK2): 38.4 nM
IC50 (SIK3): 6.3 nM

Cc1ccc(Nc2ccc3c(c2)ncn3-c2ccc(C(C)O)c(-n3ccc(C#N)n3)n2)nn1 (stereo not drawn) [Example 115, 1-[3-(1-Hydroxyethyl)-6-[5-[(6-methylpyridazin-3-yl)amino]benzimidazol-1-yl]-2-pyridyl]pyrazole-3-carbonitrile]
IC50 (SIK1): 283 nM
IC50 (SIK2): 3.9 nM
IC50 (SIK3): 0.7 nM

Cc1cc(C#N)nn1-c1nc(-n2cnc3cc(F)c(N[C@@H]4CNC[C@@H]4F)cc32)ccc1C(C)O (stereo in doubt) [Example 188, 1-[6-[5-fluoro-6-[[(3R,4S)-4-fluoropyrrolidin-3-yl]amino]benzimidazol-1-yl]-3-(1-hydroxyethyl)pyridin-2-yl]-5-methylpyrazole-3-carbonitrile]
IC50 (SIK1): 87 nM
IC50 (SIK2): 70 nM
IC50 (SIK3): 213 nM

Cc1cc(C(F)F)nn1-c1nc(-n2cnc3cc(Nc4ccc(C5(C)OCCO5)nn4)c(F)cc32)ccc1C(C)O (stereo not drawn) [Example 337, 1-[2-[3-(difluoromethyl)-5-methyl-pyrazol-1-yl]-6-[6-fluoro-5-[[6-(2-methyl-1,3-dioxolan-2-yl)pyridazin-3-yl]amino]benzimidazol-1-yl]-3-pyridyl]ethanol]
IC50 (SIK1): 1200 nM
IC50 (SIK2): 8.3 nM
IC50 (SIK3): 4.8 nM

N-[1-[6-[3-(difluoromethyl)-5-methyl-pyrazol-1-yl]-5-(1-hydroxyethyl)-2-pyridyl]-6-fluoro-benzimidazol-5-yl] cyclopropanecarboxamide [Example 361]
IC50 (SIK1): 321 nM
IC50 (SIK2): 63.9 nM
IC50 (SIK3): 51.1 nM

COc1cc(C(F)F)nn1-c1nc(-n2cnc3cc(Nc4ccc(C)nn4)ccc32)ccc1C(C)O (stereo not drawn) [Example 398, 1-[2-[3-(difluoromethyl)-5-methoxy-pyrazol-1-yl]-6-[5-[(6-methylpyridazin-3-yl)amino]benzimidazol-1-yl]-3-pyridyl]ethanol]
IC50 (SIK1): 271 nM
IC50 (SIK2): 3.9 nM
IC50 (SIK3): 2 nM

Cc1ccc(Nc2ccc3c(c2)ncn3-c2ccc(C(C)O)c(-c3ccn(CC(F)(F)F)c(=O)c3F)n2)nn1 (stereo not drawn) [Example 386, 3-fluoro-4-[3-(1-hydroxyethyl)-6-[5-[(6-methylpyridazin-3-yl)amino]benzimidazol-1-yl]-2-pyridyl]-1-(2,2,2-trifluoroethyl)pyridin-2-one]
IC50 (SIK1): 69 nM
IC50 (SIK2): 1.2 nM
IC50 (SIK3): 1.2 nM

Cc1ccc(Nc2ccc3c(c2)ncn3-c2ccc(C(C)O)c(N3CCNC4(CC4)C3)n2)nn1 (stereo not drawn) [Example 329, 1-[2-(4,7-diazaspiro[2.5]octan-7-yl)-6-[5-[(6-methylpyridazin-3-yl)amino]benzimidazol-1-yl]-3-pyridyl]ethanol]
IC50 (SIK1): 1740 nM
IC50 (SIK2): 59 nM
IC50 (SIK3): 10 nM

Cc1ccc(Nc2ccc3c(c2)ncn3-c2nc(-n3ccc(C#N)n3)c(C(C)O)cc2Cl)nn1 (stereo not drawn) [Example 239, 1-[5-Chloro-3-(1-hydroxyethyl)-6-[5-[(6-methylpyridazin-3-yl)amino]benzimidazol-1-yl]-2-pyridyl]pyrazole-3-carbonitrile]
IC50 (SIK1): > 30000 nM
IC50 (SIK2): 1390 nM
IC50 (SIK3): 329 nM

Cc1cc(C#N)nn1-c1nc(-n2cnc3ccc(N4CC[C@H]5CNC(=O)[C@H]54)cc32)ccc1C(C)O (stereo partly drawn) [Example 343, 1-[6-[6-[(3aS,6aS)-6-oxo-2,3,3a,4,5,6a-hexahydropyrrolo[2,3-c]pyrrol-1-yl]benzimidazol-1-yl]-3-(1-hydroxyethyl)-2-pyridyl]-5-methyl-pyrazole-3-carbonitrile]
IC50 (SIK1): 5 nM
IC50 (SIK2): 22 nM
IC50 (SIK3): 63 nM

Cc1cc(C#N)nn1-c1nc(-n2cnc3cc(N4CCCC45COC5)ccc32)ccc1C(C)O (stereo not drawn) [Example 296, 1-[3-(1-hydroxyethyl)-6-[5-(2-oxa-5-azaspiro[3.4]octan-5-l)benzimidazol-1-yl]-2-pyridyl]-5-methyl-pyrazole-3-carbonitrile]
IC50 (SIK1): 137 nM
IC50 (SIK2): 77 nM
IC50 (SIK3): 90 nM

COc1nn(C)cc1-c1ccc2c(c1)ncn2-c1ccc(C(C)O)c(-n2nc(C#N)cc2C)n1 (stereo not drawn) [Example 334, 1-[3-(1-hydroxyethyl)-6-[5-(3-methoxy-1-methyl-pyrazol-4-yl)benzimidazol-1-yl]-2-pyridyl]-5-methyl-pyrazole-3-carbonitrile]
IC50 (SIK1): 3 nM
IC50 (SIK2): 1.6 nM
IC50 (SIK3): 3.4 nM
